Data taken from patent US10329542B2, “HBV RNAse H purification and enzyme inhibitors” (Saint Louis University, priority 2012, dated 2019).

Legend:
[1] = target: T1, HBV genotype D RNAseH (HRHPL) (Hepatitis B virus genotype D subtype ayw, UniProt P03156, INS679M); test: Oligonucleotide-directed RNAseH cleavage assay, HBV genotype D; assay type: biochemical; conditions: for Residual activity at 10 uM, Genotype D: ± standard deviation, 3 to 7 replicates; for Activity vs. HBV Biochemical vs. gtD: class by concentration giving inhibition (10, 20, 60 μM)
T1 construct: HRHPL contains HBV genotype D (Genbank V01460) polymerase residues 684-845; made in house; host or cells: E. coli BL21 codon+
T1 sequence (P03156 680-832, added parts left off, stated change not applied): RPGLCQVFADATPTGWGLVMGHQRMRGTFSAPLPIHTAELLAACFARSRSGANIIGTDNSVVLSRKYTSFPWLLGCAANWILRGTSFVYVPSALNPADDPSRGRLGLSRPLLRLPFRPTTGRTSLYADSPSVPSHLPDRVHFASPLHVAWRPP

[2] = target: T2, chimeric HBV:HIV RNAseH HHC1 (Hepatitis B virus genotype D subtype ayw, UniProt P03156, DELINS787-795[…]/INS679M); test: Oligonucleotide-directed RNAseH cleavage assay, chimeric HHC1; assay type: biochemical; conditions: 10 μM; ± standard deviation, 3 to 7 replicates
T2 construct: HHC1 is an HRHPL derivative; made in house; host or cells: E. coli BL21 codon+
T2 sequence (P03156 680-786, added parts left off, stated change not applied): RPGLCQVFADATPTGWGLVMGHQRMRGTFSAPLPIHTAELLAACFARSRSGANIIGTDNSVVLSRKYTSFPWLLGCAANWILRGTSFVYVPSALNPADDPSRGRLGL
From the text: pCMV-HBV-LE-(CMV-HBV) is an HBV over-length genomic expression vector containing 1.2 copies of the HBV(adw2) genome (Genbank X02763.1) downstream of the CMV promoter cloned into pBS (Promega). Surface protein expression from this vector is ablated by mutating the preS and S open reading frames. pCMV-HBV(genotype D) is an analogous HBV genomic expression construct and was a gift from Dr. Shuping Tong (Brown University). For bacterial expression, codon-optimized cDNA sequences for HRHPL (genotypes A, B, C, D, and H), and noncodon-optimized sequences for HHC1 and HHC2 were cloned by gene synthesis (Genscript) between the NcoI and EcoRI sites into pTrcHis2B (Invitrogen) with a C-terminal hexahistidine tag. HRHPL contains HBV genotype D (Genbank V01460) polymerase residues 684-845. HHC1 is an HRHPL derivative in which HBV polymerase residues 800-808 were replaced with HIV residues corresponding to the RNAseH helix D ([…]; SEQ ID NO:6). HHC2 is an HRHPL derivative in which HBV polymerase residues 800-845 were replaced with HIV residues corresponding to the RNAseH helix D to the C-terminus ([…]; SEQ ID NO:7). The human RNAseH1 gene (NP_002927.2) was cloned with an N-terminal hexahistidine-tag between the BamHI and XhoI sites of pRsetB (Invitrogen) by gene synthesis.
(§1) For the oligonucleotide-directed RNAseH cleavage assay (Gong et al., 2001), 6 μl protein extract (typical protein concentration 2.8 mg/ml) was mixed with 0.5 μg internally ^32P-labeled DRF+ RNA (nucleotides 2401-2605 of the duck HBV genome plus 60 nucleotides of flanking sequences from pBluescript) and 3 μg oligonucleotide D2507- or its corresponding negative control D2526+ on ice in 20 μl under the conditions in Table 1. Some reactions in FIG. 5 employed oligonucleotide D2543M-Sal or its D2453+ negative control as indicated. The reactions were incubated at 42° C. for 90 min. and terminated by addition of Laemmli protein loading buffer and boiling. The samples were resolved by 12% SDS-PAGE, the gels were stained with Coomassie blue to monitor protein loading, and labeled RNA was detected by autoradiography. Candidate inhibitors were dissolved in DMSO and added at the indicated concentrations during assembly of the reactions. Control reactions lacking the compounds contained DMSO as a vehicle control. The RNAseH autoradiograms were scanned and quantified with ImageJ. The oligonucleotides were: D2526+([…]; SEQ ID NO:8), D2507-([…]; SEQ ID NO:9), D2453+([…]; SEQ ID NO:10), and D2543M-Sal ([…]; SEQ ID NO:11).

[3] = system: HBV; test: HBV genomic replication assays (Table 2); assay type: cell-based, Hepatitis B virus; conditions: class by active concentration
Summary of the method: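 Huh7 cells transfected with HBV plasmid received compound at 10 or 50 μM, refreshed every 1-2 days. Core-particle DNA isolated 4-5 days post-transfection was analysed by Southern blot, with or without RNaseH. For the screen, replicating cells got 60, 20 or 6.7 μM, refreshed days 1-2, and plus-strand DNA was quantified on day 3 by cross-gap TaqMan PCR.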

[4] = target: HCV RNA-directed RNA polymerase (Hepatitis C virus genotype 1a, UniProt P27958); test: Primed homopolymeric RNA (poly-G) synthesis assay; assay type: biochemical; conditions: 10 μM
HCV RNA-directed RNA polymerase, sequence (P27958 2421-3011): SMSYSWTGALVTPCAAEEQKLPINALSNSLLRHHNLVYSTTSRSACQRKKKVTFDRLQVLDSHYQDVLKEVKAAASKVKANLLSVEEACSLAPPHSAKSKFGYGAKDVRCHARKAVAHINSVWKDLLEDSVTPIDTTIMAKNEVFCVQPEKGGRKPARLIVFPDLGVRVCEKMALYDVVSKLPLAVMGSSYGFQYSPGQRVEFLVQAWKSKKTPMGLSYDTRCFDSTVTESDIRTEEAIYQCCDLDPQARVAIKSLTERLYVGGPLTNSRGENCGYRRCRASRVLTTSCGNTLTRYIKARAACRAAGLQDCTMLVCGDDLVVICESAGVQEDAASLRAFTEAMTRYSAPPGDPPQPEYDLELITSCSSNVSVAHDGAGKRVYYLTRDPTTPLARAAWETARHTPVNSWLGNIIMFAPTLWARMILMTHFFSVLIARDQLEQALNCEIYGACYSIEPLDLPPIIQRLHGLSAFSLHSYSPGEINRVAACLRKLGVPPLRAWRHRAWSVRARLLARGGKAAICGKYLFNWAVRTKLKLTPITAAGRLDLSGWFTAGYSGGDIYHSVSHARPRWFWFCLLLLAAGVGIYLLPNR
Protocol: FIGS. 9A-C. Specificity of anti-HBV RNAseH compounds. (FIG. 9A) Inhibition of HBV genotype D RNAseH by irrelevant compounds at 10 μM in the oligonucleotide-directed RNAseH assay. Compound #4 was employed as an example HBV RNAseH inhibitor. […] The ability of compounds #5, 6 and 8 to inhibit production of poly-G by the HCV RNA-directed RNA polymerase was measured in a primed homopolymeric RNA synthesis assay (Cao, et al., 2011. The compounds were employed at 10 μM. DMSO, vehicle control. (FIG. 9C) Dose-responsiveness of HBV RNAseH inhibition. The effects of compounds #6, 8, and 12 on the RNAseH activity of HRHPL (genotype D) were measured at concentrations ranging from 0.5 to 50 μM. The dose-response profile is plotted for compound #12.

[5] = system: HBV genotype H RNAseH; test: Oligonucleotide-directed RNAseH cleavage assay, HBV genotype H; assay type: biochemical, Hepatitis B virus; conditions: 10 μM; ± standard deviation, 3 to 7 replicates
Protocol: as §1
Oligonucleotide-directed RNAseH cleavage assays (Gong et al., 2001) were performed as described (Tavis et al., 2013). Briefly, HBV RNAseH extracts were mixed with a 264 nt-long internally ^32P-labeled RNA plus an excess of a complementary DNA oligonucleotide or its inverse-complement as a negative control in a final concentration of 65 mM Tris pH 8.0, 190 mM NaCl, 5 mM MgCl2, 5 mM dTT, 0.05% NP40, and 6% glycerol. βTJ was dissolved in DMSO and added at the indicated concentrations; the final concentration of DMSO in all reactions was 1%. The reactions were incubated at 42° C. for 90 min. and terminated by addition of Laemmli protein electrophoresis buffer. The samples were resolved by SDS-PAGE, labeled RNA was detected by autoradiography, the autoradiograms were scanned, and the RNA cleavage products were quantified with ImageJ (National Institutes of Health). IC50 values were calculated by non-linear regression using GraphPad Prism (GraphPad Software, Inc.).

[6] = mice and rats, doses 10 to 58 times those used in humans; cited from earlier work

Compound | Residual activity at 10 uM, Genotype D [1] [Percent DMSO control] | Activity vs. HBV Biochemical vs. gtD [1] | Residual activity at 10 uM, HHC1 [2] [Percent DMSO control] | Activity vs. HBV Genomic Replication [3] | Inhibition of poly-G production by HCV RNA polymerase [4] | Residual activity at 10 uM, Genotype H [5] [Percent DMSO control] | Inhibition ([1]; at 50 μM) [%] | Inhibition plateau ([1]; between 3 and 40 μM) | Carcinogenicity or mutagenicity [6]
Cc1cc(C)c(C#N)c(=N)o1 [Compound 5] | 42 ± 15 | + (+ inhibition at 60 μM) | 36 ± 6 | − (− no activity at 60 μM) | do not significantly inhibit | 76 ± 14 |  |  | 
CCOC(=O)c1sc(NC(=O)CSc2nnc(Cc3ccccc3)o2)c(C#N)c1C [Compound 6] | 40 ± 16 | + (+ inhibition at 60 μM) | 55 ± 23 | − (− no activity at 60 μM) | do not significantly inhibit | 81 ± 24 | 75 | 20-30% | 
Nc1ccn([C@H]2CS[C@@H](CO)O2)c(=O)n1 [Lamivudine, 2′,3′-dideoxy-3′-thiacytidine] |  |  |  |  |  |  |  |  | no evidence of carcinogenicity or mutagenicity
